The values below come from US6512004B2, “Promoters of neural regeneration” (The Regents of the University of California, priority 1998, dated 2003).

Common to all, as to assay type: cell-based
The test system of assay [1] is growth cones of the cultured Xenopus spinal neuron. In words: Growth cone turning in a Sema III gradient. The settings on record: for growth cone turning response in Sema III gradient with agent in culture medium: Sema III 50 μg/ml in the pipette, 8-br-cGMP 100 μM, Sp-cGMPS 10 μM, PP-9 10 μM, SNAP 300 μM, Rp-cGMPS 10 μM, cAMPS analogues 20 μM, one-hour exposure; for conversion of the Sema III turning response in the presence of 8-br-cGMP: 8-br-cGMP 100 μM plus Rp-cAMPS or Sp-cAMPS 20 μM. As for the experimental part: Collapsin-1/Semaphorin III/D (Sema III), a diffusible member of the semaphorin family can repel or cause collapse of growth cones in culture (6). […] We analyzed the effect of a microscopic gradient of Sema III on growth cones of the cultured Xenopus spinal neuron (8). Sema III-containing saline was applied in pulses from a micropipette positioned 100 μm from the center of the growth cone and at a 45° angle with respect to the original direction of neurite extension. […] The repulsive response was dose-dependent with a minimal response occurring at an effective concentration of about 10 ng/ml at the growth cone (8). Heat-inactivated Sema III was ineffective (FIG. 1A). […] The rate of neurite extension was unaffected by the presence of the Sema III gradient.
(§1) 8. Dissociated Xenopus spinal neurons were prepared as described (4,5). Isolated spinal neurons were used for experiments at room temperature (22°-24° C.) 14-22 hour after plating. Sema III was purified from conditioned medium of stable 293-EBNA cell lines secreting Sema III-AP as described (17). To inactivate Sema III activity, the supernatant containing Sema III-AP was heated at 85° C. for 45 minutes [J. Fan and J. A. Raper, Neuron 14, 263 (1995)]. Microscopic gradients of diffusible factors were produced as described (4,5). The average concentration of factors at the growth cone was about 10^3-fold lower than that in the pipette [A. M. Lohof, M. Quilian, Y. Dan and M-m. Poo, J. Neurosci. 12, 1253 (1992)], and a concentration gradient of 5-10% was created across a growth cone 10 μm wide, 100 μm away from the tip of the ejecting pipette. The original direction of neurite growth was defined by the last 10-μm segment of the neurite. The turning angle was defined by the angle between the original direction of neurite extension and a straight line connecting the positions of the growth cone at the onset and the end of the one hour period. Only growth cones with a net extension >5 μm over the one-hour period were scored.
(§2) 10. M. A. Schwarzschild and R. E. Zigmond, J. Neurochem. 56, 400 (1991). Pharmacological agents were added to the culture medium at least 30 minutes before the gradient was applied and were present during the experiments. The final concentrations of pharmacological agents in the medium were listed.

Assay [2] deals with rat dorsal root ganglion (DRG) axons. As to the kind of experiment: Growth cone collapse assay with Sema III on DRG explants. The settings on record: for inhibition of the collapsing activity of Sema III: agent added an hour before the collapse assay; for effect of agent alone on growth cones: without Sema III. As for the experimental part: 21. DRG explants derived from E14 rat embryos were cultured with 25 ng/ml NGF on plates precoated with poly-D-lysine and laminin for 20 hours before experiments as described (17). Pharmacological agents were added an hour before the collapse assay. The collapse assay was performed on sensory axons from these explants using Sema III-AP-containing medium essentially as described (17). For visualization, growth cones were stained with rhodamine-phalloidin, then washed and mounted.

Assay [3] deals with growth cones of Xenopus spinal neurons. As to the kind of experiment: Growth cone turning in a rMAG gradient. The settings on record: for growth cone turning response in rMAG gradient with agent in medium: rMAG 150 μg/ml in the pipette, 8-br-cGMP 100 μM, Sp-cAMPS 20 μM.
Excerpt: To examine whether the responses to other repulsive factors can be converted, we studied myelin-associated glycoprotein (MAG), a component of myelin and an inhibitor of axonal regeneration (22). […] However, the repulsion by rMAG was not affected by the addition of 8-br-cGMP. […] Thus the turning response induced by rMAG can be modulated by cAMP-dependent activities. This is reminiscent of the turning responses induced by gradients of BDNF and netrin-1 (4,5), although the latter factors are normally attractive and are converted to repulsive by inhibition of cAMP-dependent activities.
as §1
10. M. A. Schwarzschild and R. E. Zigmond, J. Neurochem. 56, 400 (1991). Pharmacological agents were added to the culture medium at least 30 minutes before the gradient was applied and were present during the experiments. […]

The test system is the same in assay [4]. As to the kind of experiment: Growth cone turning in a netrin-1 gradient. The settings on record: for turning response in netrin-1 gradient with agent in medium: netrin-1 5 μg/ml in the pipette, Rp-cGMPS 10 μM, 8-br-cGMP 100 μM, Rp-cAMPS 20 μM. As for the experimental part: (§3) FIGS. 4A-4D. (A) Effects of manipulating cyclic nucleotide levels on turning induced by a rMAG gradient (150 μg/ml in the pipette) in normal medium, in medium containing 8-br-cGMP (100 μM) or Sp-cAMPS (20 μM), and by heat-inactivated rMAG in normal medium. […] (B) Effects of reducing [Ca^2+]o on turning responses induced by rMAG. […] (C) Turning responses induced by a gradient of netrin-1 (5 μg/ml in the pipette) (5), in normal medium and in medium containing Rp-cGMPS (10 μM), 8-br-cGMP (100 μM), Rp-cAMPS (20 μM), or both Rp-cAMPS (20 μM) and 8-br-cGMP (100 μM). […] (D) Turning induced by a NT-3 gradient (50 μg/ml in the pipette) in normal medium and in medium containing Rp-cAMPS (20 μM) or Rp-cGMPS (10 μM), or in medium containing 1 μM Ca^2+.
as §1, §2

Assay [5] has the same test system. In words: Growth cone turning in a NT-3 gradient. The settings on record: NT-3 50 μg/ml in the pipette; Rp-cGMPS 10 μM, Rp-cAMPS 20 μM. As for the experimental part:
as §3
8. Dissociated Xenopus spinal neurons were prepared as described (4,5). Isolated spinal neurons were used for experiments at room temperature (22°-24° C.) 14-22 hour after plating. Sema III was purified from conditioned medium of stable 293-EBNA cell lines secreting Sema III-AP as described (17). To inactivate Sema III activity, the supernatant containing Sema III-AP was heated at 85° C. for 45 minutes [J. Fan and J. A. Raper, Neuron 14, 263 (1995)]. Microscopic gradients of diffusible factors were produced as described (4,5). […] Only growth cones with a net extension >5 μm over the one-hour period were scored. […]

Entries after “also recorded” stand apart in the source; their conditions may differ.

As to `CC(=O)N[C@H](C(=O)O)C(C)(C)SN=O` (racemic) [S-Nitroso-N-acetylpenicillamine], the “growth cone turning response in Sema III gradient with agent in culture medium” value (from here on “growth cone turning response … in culture medium”) in assay [1] is on record as “abolished the repulsive turning response without causing a significant attractive response”.

For the molecule `Nc1nc2c(nc(Br)n2[C@@H]2O[C@@H]3COP(=O)(O)O[C@H]3[C@H]2O)c(=O)[nH]1` [Activator 8-br-cGMP, 8-br-cGMP], the “growth cone turning response … in culture medium” value in assay [1] was “nearly all growth cones turned toward rather than away from the pipette; also recorded: attractive response”. In addition, in assay [2], the “inhibition of the collapsing activity of Sema III” value is recorded as “inhibited the collapsing activity of Sema III in a dose-dependent manner” and the “effect of agent alone on growth cones” value is on record as “no detectable effect”. In addition, the “concentrations needed to inhibit the collapsing activity of Sema III” value in assay [2] (rat DRG explants) fell in the range of 0.5 to 5 mM. In addition, in assay [3], the “growth cone turning response in rMAG gradient with agent in medium” value is “not affected”. Besides, in assay [4] (Rp-cAMPS 20 μM and 8-br-cGMP 100 μM), the “repulsive turning in netrin-1 gradient in the presence of Rp-cAMPS” value is on record as “not affected”. Further, the “turning response in netrin-1 gradient with agent in medium” value (from here on “turning response in netrin-1 gradient”) in assay [4] is “did not affect the attractive turning”.

Regarding `Nc1ncnc2c1ncn2[C@@H]1O[C@@H]2CO[P@@](O)(=S)O[C@H]2[C@H]1O` [Rp-cAMPS], in assay [1], the “conversion of the Sema III turning response in the presence of 8-br-cGMP” value is given as “blocked the conversion of the turning response”. Also, the “turning response in netrin-1 gradient” value in assay [4] is “repulsive turning”. For the same molecule, in assay [5], the “attractive response in a NT-3 gradient with agent in medium” value is “no effect”.

As for `Nc1nc2c(ncn2[C@@H]2O[C@@H]3COP(O)(=S)O[C@H]3[C@H]2O)c(=O)[nH]1` (stereo partly drawn) [Rp-cGMPS], in assay [1], the “growth cone turning response … in culture medium” value is given as “did not affect the growth cone response”. Also, the “turning response in netrin-1 gradient” value in assay [4] was “did not affect the attractive turning”. The “attractive response in a NT-3 gradient with agent in medium” value in assay [5] was “converted to repulsive response”.

As for `Nc1ncnc2c1ncn2[C@@H]1O[C@@H]2COP(O)(=S)O[C@H]2[C@H]1O` (stereo partly drawn) [Sp-cAMPS], the “conversion of the Sema III turning response in the presence of 8-br-cGMP” value in assay [1] was “not”. In assay [2], the “inhibition of the collapsing activity of Sema III” value is “not” and the “effect of agent alone on growth cones” value was “no detectable effect”. Also, in assay [3], the “growth cone turning response in rMAG gradient with agent in medium” value is listed as “converted to attraction”.

For `Nc1nc2c(ncn2[C@@H]2O[C@@H]3COP(O)(=S)O[C@H]3[C@H]2O)c(=O)[nH]1` (stereo partly drawn) [Sp-cGMPS], the “growth cone turning response … in culture medium” value in assay [1] was “nearly all growth cones turned toward rather than away from the pipette”.

B1: rMAG: recombinant protein consisting of the extracellular domain of MAG (protein, UniProt P07722 20-516, looked up)
extracellular domain: GHWGAWMPSSISAFEGTCVSIPCRFDFPDELRPAVVHGVWYFNSPYPKNYPPVVFKSRTQVVHESFQGRSRLLGDLGLRNCTLLLSTLSPELGGKYYFRGDLGGYNQYTFSEHSVLDIINTPNIVVPPEVVAGTEVEVSCMVPDNCPELRPELSWLGHEGLGEPTVLGRLREDEGTWVQVSLLHFVPTREANGHRLGCQAAFPNTTLQFEGYASLDVKYPPVIVEMNSSVEAIEGSHVSLLCGADSNPPPLLTWMRDGMVLREAVAESLYLDLEEVTPAEDGIYACLAENAYGQDNRTVELSVMYAPWKPTVNGTVVAVEGETVSILCSTQSNPDPILTIFKEKQILATVIYESQLQLELPAVTPEDDGEYWCVAENQYGQRATAFNLSVEFAPIILLESHCAAARDTVQCLCVVKSNPEPSVAFELPSRNVTVNETEREFVYSERSGLLLTSILTLRGQAQAPPRVICTSRNLYGTQSLELPFQGAHRLMWAKIGP
modifications: extracellular domain
notes: recombinant protein consisting of the extracellular domain of MAG
In the case of B1, in assay [3] (normal medium), the “growth cone turning induced by the rMAG gradient” value is “repelled growth cones”.

B2: Sema III: a diffusible member of the semaphorin family, purified from conditioned medium of 293-EBNA cell lines (protein, UniProt Q14563 21-771, looked up)
Semaphorin-3A: NYQNGKNNVPRLKLSYKEMLESNNVITFNGLANSSSYHTFLLDEERSRLYVGAKDHIFSFDLVNIKDFQKIVWPVSYTRRDECKWAGKDILKECANFIKVLKAYNQTHLYACGTGAFHPICTYIEIGHHPEDNIFKLENSHFENGRGKSPYDPKLLTASLLIDGELYSGTAADFMGRDFAIFRTLGHHHPIRTEQHDSRWLNDPKFISAHLISESDNPEDDKVYFFFRENAIDGEHSGKATHARIGQICKNDFGGHRSLVNKWTTFLKARLICSVPGPNGIDTHFDELQDVFLMNFKDPKNPVVYGVFTTSSNIFKGSAVCMYSMSDVRRVFLGPYAHRDGPNYQWVPYQGRVPYPRPGTCPSKTFGGFDSTKDLPDDVITFARSHPAMYNPVFPMNNRPIVIKTDVNYQFTQIVVDRVDAEDGQYDVMFIGTDVGTVLKVVSIPKETWYDLEEVLLEEMTVFREPTAISAMELSTKQQQLYIGSTAGVAQLPLHRCDIYGKACAECCLARDPYCAWDGSACSRYFPTAKRRTRRQDIRNGDPLTHCSDLHHDNHHGHSPEERIIYGVENSSTFLECSPKSQRALVYWQFQRRNEERKEEIRVDDHIIRTDQGLLLRSLQQKDSGNYLCHAVEHGFIQTLLKVTLEVIDTEHLEELLHKDDDGDGSKTKEMSNSMTPSQKVWYRDFMQLINHPNLNTMDEFCEQVWKRDRKQRRQRPGHTPGNSNKWKHLQENKKGRNRRTHEFERAPRSV
For B2, the “rate of neurite extension” value in assay [1] (in the presence of the Sema III gradient) is on record as “unaffected”. In addition, the “effective concentration at the growth cone for minimal repulsive response” value in assay [1] (normal medium) is on record as “about 10 ng/ml”. The “growth cone turning induced by the factor gradient” value in assay [1] (normal medium, pipette 100 μm from growth cone, 45° angle) is recorded as “Most growth cones grew away from the pipette”. Also, the “collapse of growth cones” value in assay [1] (up to 100 μg/ml of Sema III in the pipette) was “No obvious collapse of growth cones”.
